From patent US20240277684A1, “BLOCKADE OF CHEMOKINE (C-C MOTIF) RECEPTOR 2 DURING FLUID RESUSCITATION” (University of South Florida, priority 2022, published 2024)

Assays:
normal rats = assay: Effects on blood pressure in normal rats; format: in vivo, rat
Experimental: In vivo animal experiments. All procedures were performed in accordance with the National Institutes of Health Guidelines for Use of Laboratory Animals and were approved by the University of South Florida Institutional Animal Care and Use Committeee (IS00008139). Male Sprague-Dawley rats (300-400 g, Envigo, Indianapolis, IN, USA). were anesthetized with 1.7% isoflurane via nose-cone inhalation with the SomnoSuite anesthesia system (Kent Scientific, Torrington, CT, USA). […] The left femoral artery was isolated and cannulated with a 24-gauge peripheral intravenous catheter to allow for blood withdrawal, hemodynamic monitoring, drug administration, and fluid resuscitation. Hemodynamics were continuously monitored with the SurgivetV6400 blood pressure monitor (Med-Electronics, Beltsville, MD, USA), and blood pressures and heart rate were recorded at 1-10 min intervals. All animals were observed over a 10 min period to ensure hemodynamic stability before start of the experiments. All experiments were performed randomized in alternating order. To test the effects of INCB3284 in normal rats, animals received repetitive injections of 1 mL of Lactated Ringer's solution (LR, vehicle) in 10 min intervals (n=3) or increasing doses of the drug (0.55, 0.82, 1.4 and 2.75 μmol/kg INCB3284) in 1 mL LR in 10 min intervals (n=3).

severe hemorrhagic shock = assay: Example 2 Series 4: lethal hemorrhage without fluid resuscitation; format: in vivo, rat; conditions: 5 μmol/kg INCB3284 or 1 μmol/kg SB328437 after 40% TBV hemorrhage
Experimental: The hemorrhagic shock models were performed as described previously, with slight modifications (DeSantis A J, et al., The Chemokine (C-C Motif) Receptor 2 Antagonist INCB3284 Reduces Fluid Requirements and Protects From Hemodynamic Decompensation During Resuscitation From Hemorrhagic Shock. Crit Care Explor 2022;4(5):e0701; Bach H H, et al., Chemokine (C-X-C motif) receptor 4 and atypical chemokine receptor 3 regulate vascular alpha(1)-adrenergic receptor function. Mol Med 2014; 20:435-47; Nassoiy S P, et al., Effects of the Kv7 voltage activated potassium channel inhibitor linopirdine in rat models of hemorrhagic shock. Clin Exp Pharmacol Physiol 2018. doi: 10.1111/1440-1681.12958. PubMed PMID: 29702725; Bach H H, et al., Proteasome inhibition prolongs survival during lethal hemorrhagic shock in rats. J Trauma Acute Care Surg 2013; 74(2):499-507). In brief, anesthesia induction was performed with the animal and isoflurane-soaked gauze placed in a bell jar. After anesthesia induction, the animals were transferred to the operative field and anesthesia was maintained with 2.7% isoflurane administered via nose-cone inhalation with the SomnoSuite small animal anesthesia system (Kent Scientific Corporation, Torrington, CT, USA). […] Using a direct cut-down technique, the left femoral artery was isolated and cannulated with a 24-gauge peripheral intravenous catheter to allow for blood withdrawal, hemodynamic monitoring, drug administration, and fluid resuscitation. After catheter placement, isoflurane was decreased to 1.5%. Hemodynamics were continuously monitored with the Surgivet invasive blood pressure monitor (Med-Electronics, Beltsville, MD, USA). Blood pressures were recorded at 1-5 min intervals during the hemorrhage and resuscitation periods. Four subsequent series of experiments were performed. All experiments in each series were performed in alternating order. In all experiments animals were continuously monitored and remained under general anesthesia until euthanasia or death, as defined by asystole or loss of pulse pressure.
Series 4: The purpose of these experiments was to determine whether treatment with the chemokine receptor antagonists increases shock tolerance, blood pressure and survival time without additional fluid resuscitation. As such, death is an intentional endpoint. Earlier endpoints are unable to answer these questions and alternatives are not available. Rats were hemorrhaged 40% total blood volume (TBV) within 10 min. At t=15 min, animals were injected with vehicle (1 mL NS, n=3), 5 μmol/kg INCB3284 in 1 mL NS (n=5) or […] SB 328437 in 1 mL NS (n=5). Animals were then hemorrhaged 2% TBV every 5 minutes until death.

[1] = increasing doses 0.55, 0.82, 1.4 and 2.75 μmol/kg in 1 mL LR, 10 min intervals

COc1ccc([C@]2(O)CC[C@@H](N3CC[C@@H](NC(=O)CNC(=O)c4cccc(C(F)(F)F)c4)C3)CC2)cn1 [INCB3284]
MAP during the observation period (normal rats; [1]): remained constant
acute effects on blood pressure (normal rats; [1]): did not show acute effects on blood pressure
slope of the MAP linear regression line (normal rats; increasing doses 0.55-2.75 μmol/kg, not significantly different from zero (p=0.43)): −0.011 mmHg/min
MAP during subsequent 2% TBV hemorrhages in 5 min intervals (severe hemorrhagic shock; no fluid resuscitation): indistinguishable among groups
median survival time (severe hemorrhagic shock; not significantly different between groups): 80 min
